Publication PMC3914206

What was measured:
Type in all cases: binding
panel of 442 kinases [1] = target: T1, panel of 442 kinases (Homo sapiens, UniProt Q8WU08); details: kinase YANK1; compound concentration 10 µM
T1 construct: purchased KINOMEscan
Excerpt: (§1) We assessed the selectivity of members of this scaffold using the KINOMEscan methodology across a near comprehensive panel of 442 kinases [[18,27]].

panel of 442 kinases [2] = target: T2, panel of 442 kinases (Homo sapiens, UniProt Q16512); details: Compound Concentration 10 µM
T2 construct: purchased KINOMEscan
T2 sequence (Q16512 whole entry): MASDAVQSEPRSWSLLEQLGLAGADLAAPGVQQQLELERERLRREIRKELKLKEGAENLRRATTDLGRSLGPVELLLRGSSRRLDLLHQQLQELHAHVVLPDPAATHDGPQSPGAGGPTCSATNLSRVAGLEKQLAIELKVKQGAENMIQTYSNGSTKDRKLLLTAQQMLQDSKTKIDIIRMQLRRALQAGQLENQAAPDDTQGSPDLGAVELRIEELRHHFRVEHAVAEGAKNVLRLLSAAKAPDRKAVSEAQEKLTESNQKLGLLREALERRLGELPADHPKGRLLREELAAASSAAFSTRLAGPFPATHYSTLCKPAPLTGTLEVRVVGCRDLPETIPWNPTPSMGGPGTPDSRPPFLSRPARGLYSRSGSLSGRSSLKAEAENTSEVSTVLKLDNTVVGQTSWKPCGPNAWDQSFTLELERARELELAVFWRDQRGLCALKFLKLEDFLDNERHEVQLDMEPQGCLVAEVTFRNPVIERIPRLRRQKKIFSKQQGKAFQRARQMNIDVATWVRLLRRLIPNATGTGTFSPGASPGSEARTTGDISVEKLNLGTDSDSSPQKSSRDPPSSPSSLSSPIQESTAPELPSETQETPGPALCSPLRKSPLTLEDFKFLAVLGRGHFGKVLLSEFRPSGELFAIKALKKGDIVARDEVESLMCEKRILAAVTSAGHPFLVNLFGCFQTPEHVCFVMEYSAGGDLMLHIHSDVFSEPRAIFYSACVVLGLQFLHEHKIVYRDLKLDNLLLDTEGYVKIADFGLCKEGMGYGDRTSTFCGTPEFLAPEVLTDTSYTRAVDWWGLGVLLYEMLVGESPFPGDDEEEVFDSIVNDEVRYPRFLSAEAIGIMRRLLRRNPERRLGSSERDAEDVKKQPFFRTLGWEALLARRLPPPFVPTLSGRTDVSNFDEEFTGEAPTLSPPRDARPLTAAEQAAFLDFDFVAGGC
Excerpt: as §1

panel of 442 kinases [3] = target: T3, panel of 442 kinases (Homo sapiens, UniProt Q9Y2U5); details: Compound Concentration 10 µM
T3 construct: purchased KINOMEscan
T3 sequence (Q9Y2U5 1-619): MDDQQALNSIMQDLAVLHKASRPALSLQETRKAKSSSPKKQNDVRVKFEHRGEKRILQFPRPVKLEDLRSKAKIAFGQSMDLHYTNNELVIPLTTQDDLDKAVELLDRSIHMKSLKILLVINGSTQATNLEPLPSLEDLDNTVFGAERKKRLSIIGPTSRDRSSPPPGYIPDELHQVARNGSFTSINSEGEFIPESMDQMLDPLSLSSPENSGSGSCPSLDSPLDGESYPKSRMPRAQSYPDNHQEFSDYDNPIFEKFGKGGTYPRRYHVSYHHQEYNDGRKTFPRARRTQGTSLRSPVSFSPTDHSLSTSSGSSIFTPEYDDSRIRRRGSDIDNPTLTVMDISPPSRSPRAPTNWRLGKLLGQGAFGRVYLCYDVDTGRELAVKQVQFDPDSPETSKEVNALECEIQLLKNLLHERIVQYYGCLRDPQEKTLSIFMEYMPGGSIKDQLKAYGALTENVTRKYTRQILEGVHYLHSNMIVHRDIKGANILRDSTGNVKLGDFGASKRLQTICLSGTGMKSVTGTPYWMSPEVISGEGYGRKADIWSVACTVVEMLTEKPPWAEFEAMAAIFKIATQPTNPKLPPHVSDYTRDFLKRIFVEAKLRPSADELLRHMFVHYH
Excerpt: as §1

T1 sequence (Q8WU08 whole entry): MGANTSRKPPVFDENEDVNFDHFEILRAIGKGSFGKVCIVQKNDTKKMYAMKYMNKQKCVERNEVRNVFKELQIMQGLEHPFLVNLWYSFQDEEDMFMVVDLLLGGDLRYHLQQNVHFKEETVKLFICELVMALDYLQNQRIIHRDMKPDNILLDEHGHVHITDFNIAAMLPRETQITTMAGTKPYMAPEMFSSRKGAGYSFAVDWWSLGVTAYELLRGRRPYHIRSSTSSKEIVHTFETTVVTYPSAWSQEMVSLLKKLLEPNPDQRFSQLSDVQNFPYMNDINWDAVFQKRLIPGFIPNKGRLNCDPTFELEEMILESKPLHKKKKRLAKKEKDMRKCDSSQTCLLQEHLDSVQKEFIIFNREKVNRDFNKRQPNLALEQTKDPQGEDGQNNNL

Q: With `COc1cc(C(=O)N2CCC(N3CCN(C)CC3)CC2)ccc1Nc1ncc2c(n1)N1CCc3cccc(c31)C(=O)N2C` [Compound 24] as the molecule, how does the “% Ctrl, YANK1” value (panel of 442 kinases [1]) read?
A: 100 % Ctrl

Q: `CCOc1cc(C(=O)N2CCC(N3CCN(C)CC3)CC2)ccc1Nc1ncc2c(n1)N(C1CCCC1)c1ccccc1C(=O)N2C` [Compound 26] was tested. Which “KINOMEscan: PKN1” value (panel of 442 kinases [2]) did it give?
A: 100

Q: What about the “KINOMEscan: MAP3K2” value (panel of 442 kinases [3]) of the same molecule?
A: 100

Q: And the “% Ctrl, YANK1” value (panel of 442 kinases [1])?
A: 100 % Ctrl

Q: Which results are given for `COc1cc(C(=O)N2CCC(N3CCN(C)CC3)CC2)ccc1Nc1ncc2c(n1)N(C1CCCC1)c1ccccc1C(=O)N2C` [Compound 25, 11-cyclopentyl-2-((2-methoxy-4-(4-(4-methylpiperazin-1-yl)piperidine-1-carbonyl)phenyl)amino)-5-methyl-5H-benzo[e]pyrimido[5,4-b][1,4]diazepin-6(11H)-one]?
A: KINOMEscan: PKN1 (panel of 442 kinases [2]): 100; KINOMEscan: MAP3K2 (panel of 442 kinases [3]): 90; % Ctrl, YANK1 (panel of 442 kinases [1]): 100 % Ctrl

Q: What does the source list for `COc1cc(C(=O)N2CCC(N3CCN(C)CC3)CC2)ccc1Nc1ncc2c(n1)N(C)c1ccccc1C(=O)N2C` [15 (LRRK2-IN-1)]?
A: KINOMEscan: PKN1 (panel of 442 kinases [2]): 100; KINOMEscan: MAP3K2 (panel of 442 kinases [3]): 97; % Ctrl, YANK1 (panel of 442 kinases [1]): 100 % Ctrl
